In the assay the target is H1047R PIK3CA enzyme (Homo sapiens, UniProt P42336, H1047R). Description: ADP-Glo Biochemical PIK3CA Kinase Assay.
Chain of H1047R PIK3CA enzyme (P42336 whole entry H1047R): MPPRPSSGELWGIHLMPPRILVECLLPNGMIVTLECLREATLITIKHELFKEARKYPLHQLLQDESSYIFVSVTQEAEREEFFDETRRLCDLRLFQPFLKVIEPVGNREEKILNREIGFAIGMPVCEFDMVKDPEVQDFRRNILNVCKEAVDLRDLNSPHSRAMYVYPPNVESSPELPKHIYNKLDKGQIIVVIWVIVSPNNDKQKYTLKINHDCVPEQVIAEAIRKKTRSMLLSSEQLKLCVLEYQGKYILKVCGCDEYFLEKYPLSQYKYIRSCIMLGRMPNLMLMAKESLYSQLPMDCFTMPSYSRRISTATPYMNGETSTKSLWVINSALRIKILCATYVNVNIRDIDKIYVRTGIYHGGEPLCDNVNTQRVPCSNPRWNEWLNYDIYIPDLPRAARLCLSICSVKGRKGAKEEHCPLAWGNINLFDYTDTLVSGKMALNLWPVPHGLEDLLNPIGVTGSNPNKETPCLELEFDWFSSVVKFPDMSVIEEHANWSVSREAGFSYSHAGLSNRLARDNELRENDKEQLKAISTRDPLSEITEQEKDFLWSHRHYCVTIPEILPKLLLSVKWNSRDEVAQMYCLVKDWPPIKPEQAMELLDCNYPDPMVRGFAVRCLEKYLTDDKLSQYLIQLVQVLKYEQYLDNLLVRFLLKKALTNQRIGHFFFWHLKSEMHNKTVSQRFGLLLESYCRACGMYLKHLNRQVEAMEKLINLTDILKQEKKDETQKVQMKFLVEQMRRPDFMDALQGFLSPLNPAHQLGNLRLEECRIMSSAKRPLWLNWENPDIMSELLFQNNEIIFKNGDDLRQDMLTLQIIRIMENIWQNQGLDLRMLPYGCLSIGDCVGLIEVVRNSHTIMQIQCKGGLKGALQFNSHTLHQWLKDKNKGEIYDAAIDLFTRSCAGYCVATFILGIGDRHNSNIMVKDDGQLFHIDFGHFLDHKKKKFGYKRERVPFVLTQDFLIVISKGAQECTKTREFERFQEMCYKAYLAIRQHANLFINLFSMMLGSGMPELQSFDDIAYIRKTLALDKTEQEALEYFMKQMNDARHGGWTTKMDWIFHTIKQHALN
Chain of H1047R PIK3CA enzyme (P27986 whole entry partner): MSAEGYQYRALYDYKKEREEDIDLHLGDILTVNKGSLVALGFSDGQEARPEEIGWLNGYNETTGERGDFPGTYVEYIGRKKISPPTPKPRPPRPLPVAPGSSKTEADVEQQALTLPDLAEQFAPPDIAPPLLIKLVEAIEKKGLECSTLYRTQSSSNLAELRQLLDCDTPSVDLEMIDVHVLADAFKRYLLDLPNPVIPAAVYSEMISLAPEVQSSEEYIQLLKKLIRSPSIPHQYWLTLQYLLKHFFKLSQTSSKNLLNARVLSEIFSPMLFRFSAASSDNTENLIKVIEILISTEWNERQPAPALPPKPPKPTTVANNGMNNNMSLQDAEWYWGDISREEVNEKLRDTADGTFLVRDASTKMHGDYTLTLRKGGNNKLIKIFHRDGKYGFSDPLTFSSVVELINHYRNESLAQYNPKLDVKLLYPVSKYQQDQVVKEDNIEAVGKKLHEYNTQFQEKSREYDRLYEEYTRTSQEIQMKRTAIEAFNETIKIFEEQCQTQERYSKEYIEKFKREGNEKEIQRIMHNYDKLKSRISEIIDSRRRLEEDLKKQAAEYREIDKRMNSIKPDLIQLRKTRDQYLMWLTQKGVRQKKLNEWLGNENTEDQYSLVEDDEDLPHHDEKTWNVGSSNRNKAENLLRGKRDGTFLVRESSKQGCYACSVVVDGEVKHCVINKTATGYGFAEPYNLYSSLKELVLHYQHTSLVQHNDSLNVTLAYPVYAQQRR
A word on the IC50: it is the concentration needed to halve the response being measured. Read a high IC50 as weaker potency in that assay. As to `Cc1ccc(C(=O)Nc2cc(Br)cc3c2C(c2cc(F)ccc2Cl)NC3=O)cc1` (centres unmarked) [Compound I-519], the IC50 lay within 10000 to 100000 nM.

In turn, `Cc1cccc(C(=O)Nc2cc(Br)cc3c2C(c2cc(F)ccc2Cl)NC3=O)c1` (centres unmarked) [Compound I-520] gave an IC50 of 1000 to 10000 nM.

In turn, `O=C(Nc1cc(Br)cc2c1C(c1cc(F)ccc1Cl)NC2=O)c1cc(Cl)cc(Cl)c1` (centres unmarked) [Compound I-521] displayed an IC50 not above 100 nM.

As for `N#Cc1cccc(C(=O)Nc2cc(Br)cc3c2C(c2cc(F)ccc2Cl)NC3=O)c1` (centres unmarked) [Compound I-522], the IC50 was 1000 to 10000 nM.

`O=C(Nc1cc(Br)cc2c1C(c1cc(F)ccc1Cl)NC2=O)c1ccnc(C(F)(F)F)c1` (centres unmarked) [Compound I-523]: the IC50 was 10000 to 100000 nM.

For the compound `O=C(Nc1cc(Br)cc2c1C(c1cc(F)ccc1Cl)NC2=O)c1ccc(OC(F)(F)F)cc1` (centres unmarked) [Compound I-524], the IC50 lay in the range of 1000 to 10000 nM.

In turn, `O=C(Nc1cc(Br)cc2c1C(c1cc(F)ccc1Cl)NC2=O)c1ccc(F)cc1` (centres unmarked) [Compound I-525] came in with an IC50 of 10000 to 100000 nM.

Consider `O=C(Nc1cc(Br)cc2c1C(c1cc(F)ccc1Cl)NC2=O)c1cccc(F)c1` (centres unmarked) [Compound I-526], for which the IC50 lay within 1000 to 10000 nM.

Consider `O=C(Nc1cc(Br)cc2c1C(c1cc(F)ccc1Cl)NC2=O)c1ccc(Cl)cc1` (centres unmarked) [Compound I-527], for which the IC50 was 1000 to 10000 nM.

Compound `Cc1ccccc1C1NC(=O)c2cc(Br)cc(NC(=O)c3cncc(C(F)(F)F)c3)c21` (centres unmarked) [Compound I-528] yielded an IC50 of 1000 to 10000 nM.

As to `O=C(Nc1cc(CCC(F)(F)F)nc2c1C(c1cc(F)ccc1Cl)NC2=O)c1cc(F)cc(C(F)(F)F)c1` (centres unmarked) [Compound I-529], the IC50 is not above 100 nM.

In the case of `O=C(Nc1cc(NC2CCC2(F)F)cc2c1C(c1cc(F)ccc1Cl)NC2=O)c1cc(F)cc(C(F)(F)F)c1` (centres unmarked) [Compound I-530], the IC50 was not above 100 nM.

For `N#Cc1cc(NC(=O)c2cc(F)cc(Cl)c2)c2c(c1)C(=O)NC2c1cc(F)ccc1Cl` (centres unmarked) [Compound I-531], the half-maximal inhibitory concentration (IC50) was not above 100 nM.

Consider `O=C(Nc1cc(NC2CCC2(F)F)nc2c1C(c1cc(F)ccc1Cl)NC2=O)c1cc(F)cc(C(F)(F)F)c1` (centres unmarked) [Compound I-532], for which the IC50 is not above 100 nM.

Take `N#CCc1cc(NC(=O)c2cc(F)cc(C(F)(F)F)c2)c2c(c1)C(=O)NC2c1cc(F)ccc1Cl` (centres unmarked) [Compound I-533]: the IC50 is not above 100 nM.

Turning to `Cc1ccccc1C1NC(=O)c2cc(Br)cc(NC(=O)c3cc(F)cc(C4CC4)c3)c21` (centres unmarked) [Compound I-534], the IC50 fell in the range of 1000 to 10000 nM.

Consider `Cc1ccccc1C1NS(=O)(=O)c2cccc(NC(=O)c3cc(F)cc(C(F)(F)F)c3)c21` (centres unmarked) [Compound I-535], for which the IC50 lay in the range of 1000 to 10000 nM.

With `Cc1ccccc1C1NC(=O)c2cc(CF)cc(NC(=O)c3cc(F)cc(C(F)(F)F)c3)c21` (centres unmarked) [Compound I-536], the IC50 is not above 100 nM.

With `O=C(Nc1cccc2c1C(N1CCCCC1)NC2=O)c1cc(F)cc(C(F)(F)F)c1` (centres unmarked) [Compound I-537], the IC50 lay in the range of 10000 to 100000 nM.

In turn, `O=C(Nc1cc(N2CCCC(F)(F)C2)nc2c1C(c1cc(F)ccc1Cl)NC2=O)c1cc(F)cc(C(F)(F)F)c1` (centres unmarked) [Compound I-538] gave an IC50 not above 100 nM.

As to `O=C(Nc1cc(N2CCC(F)(F)CC2)nc2c1C(c1cc(F)ccc1Cl)NC2=O)c1cc(F)cc(C(F)(F)F)c1` (centres unmarked) [Compound I-539], the IC50 is not above 100 nM.

As for `O=C1NC(c2cc(F)ccc2Cl)c2c(NC(=O)N3CCC(F)C3)cc(Br)cc21` (centres unmarked) [Compound I-542], the IC50 lay within 10000 to 100000 nM.

`O=C1NC(c2cc(F)ccc2Cl)c2c(NC(=O)N3CCC(C(F)(F)F)C3)cc(Br)cc21` (centres unmarked) [Compound I-543] gave an IC50 of 1000 to 10000 nM.

`O=C1NC(c2cc(F)ccc2Cl)c2c(NC(=O)N3CCCC(F)(F)C3)cc(Br)cc21` (centres unmarked) [Compound I-544]: the IC50 was 1000 to 10000 nM.

`O=C(Nc1cc(Cl)nc2c1C(c1cc(F)ccc1Cl)NC2=O)c1cc(F)cc(C(F)(F)F)c1` (centres unmarked) [Compound I-545] returned an IC50 not above 100 nM.

For `Cc1ncc(-c2cc(NC(=O)c3cc(F)cc(C(F)(F)F)c3)c3c(n2)C(=O)NC3c2cc(F)ccc2Cl)s1` (centres unmarked) [Compound I-546], the IC50 was not above 100 nM.
